# Reference: patent US12558366B2, “Bacterial DNA gyrase inhibitors and methods of use thereof” (THE FLORIDA INTERNATIONAL UNIVERSITY BOARD OF TRUSTEES, priority 2021, dated 2026)
# Entries after “also recorded” stand apart in the source; their conditions may differ. Where two headings read alike, the source gives them in different places.
# Assays:
# Mtb DNA gyrase = Mtb DNA gyrase (Mycobacterium tuberculosis, UniProt P9WG45+P9WG47); experiment: Mtb DNA gyrase inhibition; type: biochemical
# MRSA (ATCC BAA44) = experiment: microbe, parasite or virus in culture; type: cell-based, S. aureus; conditions: for MIC: Staphylococcus aureus
# Experimental: (§1) Antibacterial minimum inhibitory concentrations (MICs) were obtained from three independent experiments using broth microdilution methods in 96-well plates according to Clinical and Laboratory Standards Institute guidelines. Cells were culture from singles colonies in MHIIB medium for 24 h at 37° C. in agitation (200 RPM). The cultures were then diluted using the same media to reach an OD600 of 0.1. Then, 50 μL of the diluted cultures were added to the plates holding 50 μL of serially diluted compounds in MHIIB. The plates were incubated at 37° C. for 20 h. The starting inoculum was fixated to 10^5 colony-forming units per ml.
# B. subtilis (ATCC 6633) = experiment: Minimum inhibitory concentration, B. subtilis; type: cell-based; conditions: for MIC: Bacillus subtilis, ATCC6633, Tables 3a-3c
# Experimental: as §1
# E. coli DNA gyrase [1] = target: T1, E. coli DNA gyrase (Escherichia coli, UniProt P0AES4+P0AES6); experiment: DNA gyrase mediated DNA cleavage assay; type: biochemical; conditions: plasmid pBR322
# Experimental: 250 ng of supercoiled pBR322 plasmid were incubated with 50 nM of E. coli DNA gyrase in reactions containing 35 mM Tris-HCl, 24 mM KCl, 4 mM MgCl2, 2 mM DTT, 0.1 mg/mL BSA, 6.5% glycerol, and 1.75 mM ATP, in presence of 200 μM of compounds, at 37° C. for 15 min. Then, 0.2% (w/v) of SDS and 0.1 mg/mL proteinase K were added, and samples were incubated at 37° C. for 1 h. […] Samples were examined by electrophoresis in 1% w/v agarose gel containing 0.5 μg/mL ethidium bromide and photographed under UV light.
# E. coli imp = experiment: microbe, parasite or virus in culture; type: cell-based; conditions: for MIC: Escherichia coli, read-out: Minimum Inhibitory Concentration E. coli imp
# Experimental: as §1
# S. aureus (ATCC 14775) = experiment: Minimum inhibitory concentration, S. aureus; type: cell-based; conditions: for MIC: Staphylococcus aureus
# Experimental: as §1
# E. coli (ATCC 25922) = experiment: Minimum inhibitory concentration, E. coli; type: cell-based; conditions: for MIC: Escherichia coli, ATCC25922, read-out: Minimum Inhibitory Concentration E. coli
# Experimental: as §1
# E. coli DNA gyrase [2] = target: T1, E. coli DNA gyrase; experiment: Agarose gel-based DNA gyrase inhibition assays; type: biochemical; conditions: 200 μM of compounds
# Experimental: 100 ng of DNA gyrase was used to supercoil the rx pAB1 in the presence of different concentrations of a gyrase inhibitor. […] Samples were analyzed by electrophoresis in 1% w/v agarose gels followed by ethidium bromide staining and photographed under UV light.
# HepG2 = experiment: Cytotoxicity in HepG2 cells; type: cell-based; conditions: for cytotoxicity: HepG2, 200 μM; for IC50: highest concentration 200 μM
# Mtb = Mtb inhibition (antibacterial activity); type: cell-based, Mycobacterium tuberculosis; design: % Mtb inhibition: concentration or dose not given beside the values; conditions: for % Mtb inhibition: Table 5
# J774 = experiment: Cytotoxicity in J774 cells; type: cell-based; conditions: for cytotoxicity: J774, 200 μM; for IC50: highest concentration 200 μM
# E. coli DNA gyrase [3] = target: T1, E. coli DNA gyrase; experiment: E. coli DNA gyrase inhibition (agarose gel-based and/or SDFQ-based, not specified per value); type: biochemical
# E. coli DNA gyrase [4] = target: T1, E. coli DNA gyrase; experiment: E. coli DNA gyrase ATPase assays; type: biochemical
# Experimental: E. coli DNA gyrase ATPase assays were performed in 60 μl, of 1×gyrase ATPase buffer (10 mM Tris.HCl (pH 7.5), 0.2 mM EDTA, 1 mM magnesium chloride, 1 mM DTT, and 2% (w/v) glycerol) containing 50 nM E. coli DNA gyrase, 200 ng rx pAB1, 0.8 mM Phosphoenol pyruvate, 1.2 units of Pyruvate kinase, 1.7 units of lactate dehydrogenase, and 0.4 mM of NADH at 37° C. After the reaction mixtures are incubated on ice for 5 minutes, 2 mM of ATP is added to initiate the reaction. Absorbance at OD340 nm is monitored for up to 30 minutes at 37° C. in a spectrophotometer.
# E. coli DNA gyrase [5] = target: T1, E. coli DNA gyrase; experiment: SDFQ HTS assay of E. coli DNA gyrase (1536-well); type: biochemical; conditions: read-out: inhibition activities against E. coli DNA gyrase
# Experimental: SDFQ HITS primary assay using pAB1_FL905 was performed in 2 μL of (1×DNA gyrase buffer: 20 mM Tris-Acetate pH 7.9, 50 mM KAc, 10 mM MgCl2, 2 mM DTT, 1 mM ATP, 0.1 mg/ml. BSA). […] 3) Spun plate at 800 rpm for 30 seconds. […] SDFQ HTS secondary assay using pAB1_FL924 was performed in 2 μL of (1×DNA gyrase buffer: 20 mM Tris-Acetate pHI 7.9, 50 mM KAc, 10 mM MgCl2, 2 mM DTT, 1 mM ATP, 0.1 mg/mL BSA). […] 3) Spun plate at 800 rpm for 30 seconds.
# [6] = read-out: Minimum Inhibitory Concentration S. aureus MRSA
# [7] = ATCC14775, Tables 3a-3c, read-out: Minimum Inhibitory Concentration S. aureus
# [8] = Table 2 values, read-out: IC50 ( ≤15 μM) IC50
# Chain of Mtb DNA gyrase (P9WG45 whole entry): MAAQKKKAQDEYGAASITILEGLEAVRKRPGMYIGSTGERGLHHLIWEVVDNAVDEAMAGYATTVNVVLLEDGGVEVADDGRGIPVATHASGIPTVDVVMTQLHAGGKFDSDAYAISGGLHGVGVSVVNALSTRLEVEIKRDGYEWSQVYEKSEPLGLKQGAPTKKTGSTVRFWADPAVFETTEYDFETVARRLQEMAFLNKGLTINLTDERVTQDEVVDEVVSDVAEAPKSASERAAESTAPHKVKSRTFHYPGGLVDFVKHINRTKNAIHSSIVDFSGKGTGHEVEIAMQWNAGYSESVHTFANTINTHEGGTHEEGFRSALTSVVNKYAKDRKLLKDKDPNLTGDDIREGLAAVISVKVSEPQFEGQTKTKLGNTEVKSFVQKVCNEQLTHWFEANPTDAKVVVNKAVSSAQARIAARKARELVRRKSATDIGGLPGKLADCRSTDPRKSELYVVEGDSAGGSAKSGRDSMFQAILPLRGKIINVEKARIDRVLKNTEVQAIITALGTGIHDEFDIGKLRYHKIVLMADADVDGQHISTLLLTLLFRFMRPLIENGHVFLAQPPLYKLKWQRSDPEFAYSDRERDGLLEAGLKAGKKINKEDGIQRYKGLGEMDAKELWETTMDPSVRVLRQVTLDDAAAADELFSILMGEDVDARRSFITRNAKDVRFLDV
# Chain of Mtb DNA gyrase (P9WG47 whole entry): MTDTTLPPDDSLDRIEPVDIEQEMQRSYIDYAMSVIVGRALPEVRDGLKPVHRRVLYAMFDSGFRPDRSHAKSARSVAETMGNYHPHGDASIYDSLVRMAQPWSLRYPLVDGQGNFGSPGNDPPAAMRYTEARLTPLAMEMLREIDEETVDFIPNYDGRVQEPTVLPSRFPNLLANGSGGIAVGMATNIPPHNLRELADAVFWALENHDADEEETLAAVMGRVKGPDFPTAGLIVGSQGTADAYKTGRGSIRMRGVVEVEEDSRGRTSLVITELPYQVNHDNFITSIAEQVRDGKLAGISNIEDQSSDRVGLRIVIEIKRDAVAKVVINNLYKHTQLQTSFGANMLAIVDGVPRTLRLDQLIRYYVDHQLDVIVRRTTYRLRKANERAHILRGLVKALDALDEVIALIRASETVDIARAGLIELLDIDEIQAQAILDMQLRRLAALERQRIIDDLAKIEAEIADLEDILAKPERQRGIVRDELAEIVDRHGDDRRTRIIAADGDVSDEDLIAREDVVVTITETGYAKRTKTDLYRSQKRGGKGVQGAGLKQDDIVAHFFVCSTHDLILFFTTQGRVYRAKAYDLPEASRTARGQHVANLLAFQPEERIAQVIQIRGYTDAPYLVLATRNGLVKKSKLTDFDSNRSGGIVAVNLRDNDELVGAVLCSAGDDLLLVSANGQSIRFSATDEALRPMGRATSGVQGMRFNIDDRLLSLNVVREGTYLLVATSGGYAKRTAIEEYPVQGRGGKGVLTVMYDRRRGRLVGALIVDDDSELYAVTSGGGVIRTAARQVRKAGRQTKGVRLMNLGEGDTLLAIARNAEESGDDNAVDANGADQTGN
# T1 sequence (P0AES4 whole entry, one chain of several): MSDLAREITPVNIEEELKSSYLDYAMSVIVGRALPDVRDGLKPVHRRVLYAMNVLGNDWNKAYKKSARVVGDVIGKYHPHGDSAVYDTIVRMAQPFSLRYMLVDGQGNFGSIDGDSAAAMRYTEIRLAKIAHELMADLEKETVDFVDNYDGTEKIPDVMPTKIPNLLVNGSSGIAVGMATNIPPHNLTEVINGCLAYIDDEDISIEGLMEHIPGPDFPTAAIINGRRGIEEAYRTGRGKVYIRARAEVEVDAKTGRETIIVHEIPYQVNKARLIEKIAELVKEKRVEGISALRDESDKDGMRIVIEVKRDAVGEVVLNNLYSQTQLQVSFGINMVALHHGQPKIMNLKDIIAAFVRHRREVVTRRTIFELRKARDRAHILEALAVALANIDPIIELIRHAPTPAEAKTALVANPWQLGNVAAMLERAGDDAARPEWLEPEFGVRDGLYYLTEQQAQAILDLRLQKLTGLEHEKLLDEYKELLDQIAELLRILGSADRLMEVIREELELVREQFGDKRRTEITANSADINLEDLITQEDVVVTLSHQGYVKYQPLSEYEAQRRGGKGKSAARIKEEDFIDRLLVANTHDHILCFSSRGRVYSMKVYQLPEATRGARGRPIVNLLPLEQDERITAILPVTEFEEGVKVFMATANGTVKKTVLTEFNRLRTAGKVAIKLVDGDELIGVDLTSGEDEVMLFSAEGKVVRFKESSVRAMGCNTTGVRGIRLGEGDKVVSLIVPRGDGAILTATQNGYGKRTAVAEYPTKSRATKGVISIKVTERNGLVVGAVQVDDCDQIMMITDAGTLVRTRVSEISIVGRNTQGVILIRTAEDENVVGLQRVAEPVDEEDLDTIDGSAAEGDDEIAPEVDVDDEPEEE
compound,measurement,setting,value
"CNC(=O)[C@H]1O[C@@H](n2cnc3c(NCc4ccc(N)cc4)ncnc32)[C@H](O)[C@@H]1O [AB-MECA, reference compound]",inhibition of Mtb DNA gyrase activities,Mtb DNA gyrase,did not inhibit
"CC(OC(=O)c1cc(O)c2ccccc2c1O)C(=O)Nc1ccc(C(N)=O)cc1 (stereo not drawn) [Compound 40, 1-[(4-carbamoylphenyl)carbamoyl]ethyl 1,4-dihydroxynaphthalene-2-carboxylate]",MIC,MRSA (ATCC BAA44); [6],> 200 µM
same,anti Bacillus subtilis activities at,B. subtilis (ATCC 6633),39 µg/mL
same,DNA gyrase-mediated double stranded DNA breaks / DNA nicking,E. coli DNA gyrase [1],causes DNA gyrase-mediated double stranded DNA breaks and DNA nicking; also recorded: causes gyrase-mediated DNA double-stranded breaks and single-stranded nicks; also recorded: bacterial DNA gyrase poison
same,MIC,E. coli imp,> 200 µM
same,MIC,S. aureus (ATCC 14775); [7],> 200 µM
same,MIC,E. coli (ATCC 25922),> 200 µM
Cc1c(CCC(=O)O)c(=O)oc2cc3occ(-c4ccc(Br)cc4)c3cc12 [Compound 46],IC50,Mtb DNA gyrase; Table 5,75 µM
same,MIC,MRSA (ATCC BAA44); read-out: MIC (μM) MRSA,> 200 µM
same,MIC,MRSA (ATCC BAA44); [6],> 200 µM
same,MIC,B. subtilis (ATCC 6633),6.25 µM
same,inhibition of E. coli DNA gyrase activities,E. coli DNA gyrase [2],completely inhibited
same,cytotoxicity,HepG2,no cytotoxicity evident
same,IC50,"HepG2; Homo sapiens, HepG2",> 200 µM
same,activity against Mtb,Mtb,most active for Mtb
same,inhibition at 20 µM,"Mtb; Mycobacterium tuberculosis, read-out: % inhibition (20 μM), 20 μM, Table 6",82.3%
same,cytotoxicity,J774,no cytotoxicity evident
same,IC50,"J774; Mus musculus, J774",> 200 µM
same,IC50,E. coli DNA gyrase [3],11.4 µM
same,inhibition of E. coli DNA gyrase activities,E. coli DNA gyrase [3],potent bacterial DNA gyrase inhibitors
same,IC50,E. coli DNA gyrase [3]; [8],11.2 µM
same,MIC,E. coli imp,6.25 µM
same,MIC,"S. aureus (ATCC 14775); ATCC14775, Table 5, read-out: MIC (μM) SA",> 200 µM
same,MIC,S. aureus (ATCC 14775); [7],> 200 µM
same,MIC,E. coli (ATCC 25922),> 200 µM
Cc1c(CCC(=O)O)c(=O)oc2c(C)c3occ(-c4ccc(Br)cc4)c3cc12 [Compound 48],MIC,B. subtilis (ATCC 6633),> 200 µM
same,mode of inhibition (ATP competitive),E. coli DNA gyrase [4],ATP competitive inhibitor
same,% Mtb inhibition,Mtb,38.6%
same,IC50,E. coli DNA gyrase [3]; [8],4.28 µM
same,MIC,E. coli imp,> 200 µM
same,MIC,E. coli (ATCC 25922),> 200 µM
Cc1c(CC(=O)O)c(=O)oc2c(C)c3occ(-c4ccc(Br)cc4)c3cc12 [Compound 117],MIC,B. subtilis (ATCC 6633),> 200 µM
same,% Mtb inhibition,Mtb,24.7%
same,MIC,E. coli imp,> 200 µM
same,MIC,E. coli (ATCC 25922),> 200 µM
Cc1c(C)c2cc3c(-c4ccc(Br)cc4)coc3c(C)c2oc1=O [Compound 118],inhibition of Mtb DNA gyrase activities,Mtb DNA gyrase,All psoralen derivatives inhibited E. coli and Mtb DNA gyrase activities except compounds 118 and 122
same,MIC,MRSA (ATCC BAA44); [6],200 µM
same,% Mtb inhibition,Mtb,21.8%
same,inhibition of E. coli DNA gyrase activities,E. coli DNA gyrase [3],All psoralen derivatives inhibited E. coli and Mtb DNA gyrase activities except compounds 118 and 122
same,MIC,"S. aureus (ATCC 14775); ATCC14775, read-out: Minimum Inhibitory Concentration S. aureus",200 µM
Cc1c(CCC(=O)O)c(=O)oc2c(C)c3occ(-c4ccc(-c5ccccc5)cc4)c3cc12 [Compound 119],MIC,B. subtilis (ATCC 6633),> 200 µM
same,cytotoxicity,HepG2,no cytotoxicity evident
same,activity against Mtb,Mtb,most active for Mtb
same,cytotoxicity,J774,no cytotoxicity evident
same,MIC,E. coli imp,> 200 µM
same,MIC,E. coli (ATCC 25922),> 200 µM
Cc1c(CCC(=O)O)c(=O)oc2c(C)c3occ(-c4ccc(Cl)cc4)c3cc12 [Compound 120],MIC,B. subtilis (ATCC 6633),> 200 µM
same,% Mtb inhibition,Mtb,18.7%
same,MIC,E. coli imp,> 200 µM
same,MIC,E. coli (ATCC 25922),> 200 µM
Cc1coc2cc3oc(=O)c(CCC(=O)O)c(C)c3cc12 [Compound 122],inhibition of Mtb DNA gyrase activities,Mtb DNA gyrase,All psoralen derivatives inhibited E. coli and Mtb DNA gyrase activities except compounds 118 and 122
same,MIC,MRSA (ATCC BAA44); [6],200 µM
same,% Mtb inhibition,Mtb,15.7%
same,inhibition of E. coli DNA gyrase activities,E. coli DNA gyrase [3],All psoralen derivatives inhibited E. coli and Mtb DNA gyrase activities except compounds 118 and 122
same,MIC,S. aureus (ATCC 14775); [7],200 µM
Cc1c(CCC(=O)O)c(=O)oc2c(C)c3occ(-c4ccc5ccccc5c4)c3cc12 [Compound 124],cytotoxicity,HepG2,no cytotoxicity evident
same,activity against Mtb,Mtb,most active for Mtb
same,cytotoxicity,J774,no cytotoxicity evident
same,MIC,E. coli imp,> 200 µM
same,MIC,E. coli (ATCC 25922),> 200 µM
"O=C(O)CCNc1ccc(NCCC(=O)O)c2c1C(=O)c1ccccc1C2=O [Compound 173, 3-({4-[(2-carboxyethyl)amino]-9,10-dioxo-9,10-dihydroanthracen-1-yl}amino)propanoic acid]",DNA gyrase-mediated double stranded DNA breaks / DNA nicking,E. coli DNA gyrase [1],cause DNA nicking
"O=C1C=C(NCCc2cc(Br)c(O)c(Br)c2)C(=O)c2ncccc21 [Compound 232, 7-((2-(3,5-Dibromo-4-hydroxyphenyl)ethyl)amino)-5,8-quinolinedione]",DNA gyrase-mediated double stranded DNA breaks / DNA nicking,E. coli DNA gyrase [1],cause DNA nicking
"Cc1cc(O)c2c(c1)C(=O)c1cc(O)cc(O)c1C2=O [Compound 242, Emodin]",inhibition at 5 µM,E. coli DNA gyrase [5],> 40%
CNC(=O)[C@H]1O[C@@H](n2cnc3c(NCc4cccc(I)c4)ncnc32)[C@H](O)[C@@H]1O [IB-MECA],inhibition of Mtb DNA gyrase activities,Mtb DNA gyrase,did not inhibit
same,inhibition of the ATPase activities of E. coli DNA gyrase,E. coli DNA gyrase [4],inhibition of the ATPase activities
same,mode of inhibition (ATP competitive),E. coli DNA gyrase [4],ATP competitive inhibitors
O=S(=O)(Cl)c1ccc(Oc2ccc(S(=O)(=O)Cl)cc2)cc1 [NSC212],IC50,HepG2,> 200 µM
same,% inhibition (20 μM),"Mtb; 20 μM, Table 6",84.6%
same,IC50,J774,> 200 µM
Sc1cccc2c(S)cccc12 [NSC229],IC50,HepG2,> 200 µM
same,% inhibition (20 μM),"Mtb; 20 μM, Table 6",99.3%
same,IC50,J774,> 200 µM
"CNC(=O)[C@H]1O[C@@H](n2cnc3c(NCc4cccc(I)c4)nc(Cl)nc32)[C@H](O)[C@@H]1O [chloro-IB-MECA, reference compound]",inhibition of Mtb DNA gyrase activities,Mtb DNA gyrase,did not inhibit
same,DNA gyrase-mediated double stranded DNA breaks / DNA nicking,E. coli DNA gyrase [1],did not DNA double stranded DNA 10 breaks
same,inhibition of the ATPase activities of E. coli DNA gyrase,E. coli DNA gyrase [4],inhibition of the ATPase activities
same,mode of inhibition (ATP competitive),E. coli DNA gyrase [4],ATP competitive inhibitors
CCn1cc(C(=O)O)c(=O)c2cc(F)c(N3CCNC(C)C3)c(F)c21 (stereo not drawn) [lomefloxacin],inhibition at 5 µM,E. coli DNA gyrase [5],> 40%
Cc1ccc(C(=O)Nc2ccc(S(=O)(=O)O)c3cc(S(=O)(=O)O)cc(S(=O)(=O)O)c23)cc1NC(=O)c1cccc(NC(=O)Nc2cccc(C(=O)Nc3cc(C(=O)Nc4ccc(S(=O)(=O)O)c5cc(S(=O)(=O)O)cc(S(=O)(=O)O)c45)ccc3C)c2)c1 [suramin],inhibition at 5 µM,E. coli DNA gyrase [5],> 40%
N[C@@H]1[C@H]2CN(c3nc4c(cc3F)c(=O)c(C(=O)O)cn4-c3ccc(F)cc3F)C[C@@H]12 [trovafloxacin],inhibition at 5 µM,E. coli DNA gyrase [5],> 40%
Biphenyl gallate,MIC (μg/ml) S. aureus (MRSA) ATCC BAA44,MRSA (ATCC BAA44); Table 7,16 µg/mL
same,MIC (μg/ml) B. subtilis ATCC 6633,B. subtilis (ATCC 6633); Table 7,16 µg/mL
same,MIC (μg/ml) E. coli imp,E. coli imp; Table 7,36.43 µg/mL
same,MIC (μg/ml) S. aureus ATCC 14775,S. aureus (ATCC 14775); Table 7,16 µg/mL
same,MIC (μg/ml) E. coli ATCC 25922,E. coli (ATCC 25922); Table 7,517.29 µg/mL
